Reference: patent publication US20240009191A1, “METHOD AND COMPOSITION FOR THE TREATMENT OF DISEASE” (DIMERIX BIOSCIENCE PTY LTD, priority 2019, published 2024)

Tests used:
Format in all cases: cell-based
AT1R-CXCR2 heteromer [1] = biological target: T1, AT1R-CXCR2 heteromer (Homo sapiens, UniProt P25025+P30556); assay: BRET Gi coupling, CXCR2/Rluc8, Venus/mGsi and HA-AT1R, pre-treatment with antagonists/inverse agonists; conditions: FIGS. 6-15; for effect of CXCL8 only on CXCR2/Rluc8-Venus/mGsi BRET: 10 nM CXCL8, 50 minutes after pre-treatment with antagonists/inverse agonists (10 μM); for effect of CXCL8 and AngII combined on CXCR2/Rluc8-Venus/mGsi BRET: 10 nM CXCL8 and 100 nM AngII; for effect of CXCL8 and AngII combined on CXCR2/Rluc8-Venus/mGsi BRET / effect of AngII only on CXCR2/Rluc8-Venus/mGsi BRET: 50 minutes after pre-treatment with antagonists/inverse agonists (10 μM); for effect of AngII only on CXCR2/Rluc8-Venus/mGsi BRET: 100 nM AngII
T1 sequence (P25025 1-360): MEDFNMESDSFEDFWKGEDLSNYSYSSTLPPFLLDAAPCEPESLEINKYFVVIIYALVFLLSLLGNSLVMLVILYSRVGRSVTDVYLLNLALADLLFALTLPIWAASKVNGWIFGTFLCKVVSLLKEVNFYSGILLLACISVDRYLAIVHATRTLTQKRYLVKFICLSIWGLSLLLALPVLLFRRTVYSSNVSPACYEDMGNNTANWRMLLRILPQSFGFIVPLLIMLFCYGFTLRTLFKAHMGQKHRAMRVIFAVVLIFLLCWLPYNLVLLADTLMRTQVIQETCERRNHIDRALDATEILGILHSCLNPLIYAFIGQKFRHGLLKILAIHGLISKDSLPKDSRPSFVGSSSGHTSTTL
T1 sequence (P30556 1-359): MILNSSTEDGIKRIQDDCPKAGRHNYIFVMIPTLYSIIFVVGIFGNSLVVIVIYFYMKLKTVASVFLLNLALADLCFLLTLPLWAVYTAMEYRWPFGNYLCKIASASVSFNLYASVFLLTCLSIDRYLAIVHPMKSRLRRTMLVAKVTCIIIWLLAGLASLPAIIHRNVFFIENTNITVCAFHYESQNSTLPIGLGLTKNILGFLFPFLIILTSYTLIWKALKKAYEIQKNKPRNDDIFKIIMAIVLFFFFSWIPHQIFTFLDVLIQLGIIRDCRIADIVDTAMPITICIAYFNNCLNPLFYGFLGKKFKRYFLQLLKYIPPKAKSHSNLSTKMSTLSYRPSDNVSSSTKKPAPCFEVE
Description: (§1) HEK293FT cells were seeded in 6-well plates at a density of approximately 700,000 cells/well and maintained at 37° C., 5% CO2 in Complete Media (DMEM containing 0.3 mg/ml glutamine, 100 IU/ml penicillin and 100 μg/ml streptomycin (Gibco/Thermo Fisher)) supplemented with 10% fetal calf serum (FCS; Bovogen). Transient transfections were carried out 24 h after seeding using FuGene6™ (Promega) according to manufacturer instructions. 24 h post-transfection, cells were washed with PBS, detached using 0.05% trypsin/0.53 mM EDTA, resuspended in HEPES-buffered phenol red free Complete Media containing 5% FCS and added to a poly-L-lysine-coated white 96-well microplate (Greiner Bio-One). 48 h post-transfection, bioluminescence resonance energy transfer (BRET) assays were carried out following pre-incubation of cells with EnduRen™ (Promega) at a final concentration of 30 μM, at 37° C., 5% CO2 for 2 h. BRET measurements were taken at 37° C. using the LUMlstar™ or CLARIOstar™ (BMG Labtech).
(§2) For antagonist/inverse agonist assays, cells were pre-incubated with EnduRen for 1.5 hours, followed by the addition of vehicle or antagonists/inverse agonists (10 μM) for another 30 minutes.
(§3) The BRET signal observed between interacting proteins is normalized by subtracting the background BRET ratio. […] In the following examples, the second calculation will be used and the signal is described as ligand-induced BRET′. Furthermore, for data shown in FIGS. 4 to 20, all data points in a given set are corrected relative to the final data point prior to agonist treatment, which is fixed to zero. In keys on FIGS. 7 to 20, “>” means “followed by after 50 minutes”, with agonists added at time zero on the x-axes.
(§4) Prior to agonist treatment (added at 0 minutes), a baseline BRET signal was recorded for each of the combinations for 20 minutes. Data were calculated as ligand-induced BRET relative to the ‘vehicle followed by vehicle’ (veh>veh) data set.

AT1R-CXCR2 heteromer [2] = biological target: T1, AT1R-CXCR2 heteromer; assay: BRET trafficking of CXCR2/Rluc8 (Venus/Kras, Rab5, Rab8) with HA-AT1R, pre-treatment with vehicle or antagonists/inverse agonists; conditions: 50 minutes after pre-treatment (10 μM); for effect of both CXCL8 and AngII combined on CXCR2/Rluc8-Venus/Kras BRET / effect of both CXCL8 and AngII combined on CXCR2/Rluc8-Venus/Rab5 BRET / effect of both CXCL8 and AngII combined on CXCR2/Rluc8-Venus/Rab8 BRET: 10 nM CXCL8 and 100 nM AngII; for effect of both CXCL8 and AngII combined on CXCR2/Rluc8-Venus/Kras BRET: FIG. 16C, 16E-16H; for effect of both CXCL8 and AngII combined on CXCR2/Rluc8-Venus/Rab5 BRET: FIG. 17C, 17E-17H; for effect of both CXCL8 and AngII combined on CXCR2/Rluc8-Venus/Rab8 BRET: FIG. 18C, 18E-18H; for effect of AngII on CXCR2/Rluc8-Venus/Kras BRET / effect of AngII on CXCR2/Rluc8-Venus/Rab5 BRET / effect of AngII on CXCR2/Rluc8-Venus/Rab8 BRET: 100 nM AngII only; for effect of AngII on CXCR2/Rluc8-Venus/Kras BRET: FIG. 16B, 16D; for effect of AngII on CXCR2/Rluc8-Venus/Rab5 BRET: FIG. 17B, 17D; for effect of AngII on CXCR2/Rluc8-Venus/Rab8 BRET: FIG. 18B, 18D
Description: as §1, §2, §3, §4

AT1R-CXCR2 heteromer [3] = biological target: T2, AT1R-CXCR2 heteromer (Homo sapiens, UniProt P25025+P30556); assay: BRET trafficking of AT1R/Rluc8 (Venus/Kras, Rab5) with unlabelled CXCR2, pre-treatment with vehicle or antagonists/inverse agonists; conditions: 50 minutes after pre-treatment (10 μM); for effect of both CXCL8 and AngII combined on AT1R/Rluc8-Venus/Kras BRET / effect of both CXCL8 and AngII combined on AT1R/Rluc8-Venus/Rab5 BRET: 10 nM CXCL8 and 100 nM AngII; for effect of both CXCL8 and AngII combined on AT1R/Rluc8-Venus/Kras BRET: FIG. 19B-19F; for effect of both CXCL8 and AngII combined on AT1R/Rluc8-Venus/Rab5 BRET: FIG. 20B-20F; for effect of AngII on AT1R/Rluc8-Venus/Kras BRET / effect of AngII on AT1R/Rluc8-Venus/Rab5 BRET: 100 nM AngII only; for effect of AngII on AT1R/Rluc8-Venus/Kras BRET: FIG. 19A; for effect of AngII on AT1R/Rluc8-Venus/Rab5 BRET: FIG. 20A
T2 sequence (P30556 1-359): T1 sequence (P30556 1-359)
T2 sequence (P25025 1-360): T1 sequence (P25025 1-360)
Description: as §1, §2, §3, §4

Row | Structure (SMILES) | effect of CXCL8 only on CXCR2/Rluc8-Venus/mGsi BRET (AT1R-CXCR2 heteromer [1]) | effect of AngII only on CXCR2/Rluc8-Venus/mGsi BRET (AT1R-CXCR2 heteromer [1]) | effect of AngII on CXCR2/Rluc8-Venus/Kras BRET (AT1R-CXCR2 heteromer [2]) | effect of AngII on CXCR2/Rluc8-Venus/Rab5 BRET (AT1R-CXCR2 heteromer [2]) | effect of AngII on CXCR2/Rluc8-Venus/Rab8 BRET (AT1R-CXCR2 heteromer [2]) | effect of AngII on AT1R/Rluc8-Venus/Kras BRET (AT1R-CXCR2 heteromer [3]) | effect of AngII on AT1R/Rluc8-Venus/Rab5 BRET (AT1R-CXCR2 heteromer [3]) | effect of CXCL8 and AngII combined on CXCR2/Rluc8-Venus/mGsi BRET (AT1R-CXCR2 heteromer [1]) | effect of both CXCL8 and AngII combined on CXCR2/Rluc8-Venus/Kras BRET (AT1R-CXCR2 heteromer [2]) | effect of both CXCL8 and AngII combined on CXCR2/Rluc8-Venus/Rab5 BRET (AT1R-CXCR2 heteromer [2]) | effect of both CXCL8 and AngII combined on CXCR2/Rluc8-Venus/Rab8 BRET (AT1R-CXCR2 heteromer [2]) | effect of both CXCL8 and AngII combined on AT1R/Rluc8-Venus/Kras BRET (AT1R-CXCR2 heteromer [3]) | effect of both CXCL8 and AngII combined on AT1R/Rluc8-Venus/Rab5 BRET (AT1R-CXCR2 heteromer [3])
1 | O=C(Nc1ccc([N+](=O)[O-])cc1O)Nc1ccccc1Br [SB225002] | completely inhibited | not being altered | did not alter | did appear to inhibit | did not alter | – | – | indistinguishable from that observed with AngII only | indistinguishable from the effect observed with AngII only | appears to inhibit the effect of AngII as well as that of CXCL8 | indistinguishable from the effect observed with AngII only | indistinguishable from the effect observed with AngII only | indistinguishable from the effect observed with AngII only
2 | CCOc1nc2cccc(C(=O)O)c2n1Cc1ccc(-c2ccccc2-c2nnn[nH]2)cc1 [candesartan] | not being altered | completely inhibited | – | – | – | – | – | indistinguishable from that observed with CXCL8 only | – | – | – | – | –
3 | CCCCC1=NC2(CCCC2)C(=O)N1Cc1ccc(-c2ccccc2-c2nnn[nH]2)cc1 [irbesartan] | not being altered | completely inhibited | completely inhibited | completely inhibited | completely inhibited | completely inhibited | completely inhibited | indistinguishable from that observed with CXCL8 only | indistinguishable from the effect observed with CXCL8 only | indistinguishable from the effect observed with CXCL8 only | completely inhibited | completely inhibited | completely inhibited
4 | CCCCc1nc(Cl)c(CO)n1Cc1ccc(-c2ccccc2-c2nn[nH]n2)cc1 [losartan] | not being altered | completely inhibited | – | – | – | – | – | indistinguishable from that observed with CXCL8 only | – | – | – | – | –

The next lines start with results.

Row | effect of CXCL8 only on CXCR2/Rluc8-Venus/mGsi BRET (AT1R-CXCR2 heteromer [1]) | effect of AngII only on CXCR2/Rluc8-Venus/mGsi BRET (AT1R-CXCR2 heteromer [1]) | effect of AngII on CXCR2/Rluc8-Venus/Kras BRET (AT1R-CXCR2 heteromer [2]) | effect of AngII on CXCR2/Rluc8-Venus/Rab5 BRET (AT1R-CXCR2 heteromer [2]) | effect of AngII on CXCR2/Rluc8-Venus/Rab8 BRET (AT1R-CXCR2 heteromer [2]) | effect of AngII on AT1R/Rluc8-Venus/Kras BRET (AT1R-CXCR2 heteromer [3]) | effect of AngII on AT1R/Rluc8-Venus/Rab5 BRET (AT1R-CXCR2 heteromer [3]) | Structure (SMILES) | effect of CXCL8 and AngII combined on CXCR2/Rluc8-Venus/mGsi BRET (AT1R-CXCR2 heteromer [1]) | effect of both CXCL8 and AngII combined on CXCR2/Rluc8-Venus/Kras BRET (AT1R-CXCR2 heteromer [2]) | effect of both CXCL8 and AngII combined on CXCR2/Rluc8-Venus/Rab5 BRET (AT1R-CXCR2 heteromer [2]) | effect of both CXCL8 and AngII combined on CXCR2/Rluc8-Venus/Rab8 BRET (AT1R-CXCR2 heteromer [2]) | effect of both CXCL8 and AngII combined on AT1R/Rluc8-Venus/Kras BRET (AT1R-CXCR2 heteromer [3]) | effect of both CXCL8 and AngII combined on AT1R/Rluc8-Venus/Rab5 BRET (AT1R-CXCR2 heteromer [3])
5 | not being altered | completely inhibited | completely inhibited | completely inhibited | completely inhibited | completely inhibited | completely inhibited | CCOc1nc2cccc(C(=O)O)c2n1Cc1ccc(-c2ccccc2-c2nc(=O)o[nH]2)cc1 [azilsartan] | indistinguishable from that observed with CXCL8 only | indistinguishable from the effect observed with CXCL8 only | indistinguishable from the effect observed with CXCL8 only | completely inhibited | completely inhibited | completely inhibited
6 | completely inhibited | not being altered | – | – | – | – | – | Cc1c(F)cccc1NC(=O)Nc1ccc(Cl)c(S(=O)(=O)[C@H]2CCCNC2)c1O [danirixin] | indistinguishable from that observed with AngII only | – | – | – | indistinguishable from the effect observed with AngII only | indistinguishable from the effect observed with AngII only
7 | not being altered | completely inhibited | – | – | – | – | – | CCCCc1ncc(/C=C(\Cc2cccs2)C(=O)O)n1Cc1ccc(C(=O)O)cc1 [eprosartan] | indistinguishable from that observed with CXCL8 only | – | – | – | – | –
8 | completely inhibited | not being altered | did not alter | did not alter | did not alter | – | – | CC[C@@H](Nc1c(Nc2cccc(C(=O)N(C)C)c2O)c(=O)c1=O)c1ccc(C)o1 [navarixin] | indistinguishable from that observed with AngII only | indistinguishable from the effect observed with AngII only | indistinguishable from the effect observed with AngII only | indistinguishable from the effect observed with AngII only | indistinguishable from the effect observed with AngII only | indistinguishable from the effect observed with AngII only
9 | not being altered | completely inhibited | – | – | – | – | – | CCCc1nc2c(C)cc(-c3nc4ccccc4n3C)cc2n1Cc1ccc(-c2ccccc2C(=O)O)cc1 [telmisartan] | indistinguishable from that observed with CXCL8 only | – | – | – | – | –
